Experimental data: patent US7465741B2, “C-substituted tricyclic isoxazoline derivatives and their use as anti-depressants” (Janssen Pharmaceutica N.V., priority 2002, dated 2008)

Tests used:
hα2A receptor = biological target: T1, hα2A receptor (Homo sapiens, UniProt P08913); experiment: Radioligand binding experiment for hα2A receptor ([3H]-raulwolscine, CHO cell membranes); details: [3H]-raulwolscine 1 nM, membranes of CHO cells transfected with human α2A receptor; read-out: pIC50 hα2A (converted)
T1 construct: expressed in transfected cells; host or cells: CHO cells
T1 sequence (P08913 1-465): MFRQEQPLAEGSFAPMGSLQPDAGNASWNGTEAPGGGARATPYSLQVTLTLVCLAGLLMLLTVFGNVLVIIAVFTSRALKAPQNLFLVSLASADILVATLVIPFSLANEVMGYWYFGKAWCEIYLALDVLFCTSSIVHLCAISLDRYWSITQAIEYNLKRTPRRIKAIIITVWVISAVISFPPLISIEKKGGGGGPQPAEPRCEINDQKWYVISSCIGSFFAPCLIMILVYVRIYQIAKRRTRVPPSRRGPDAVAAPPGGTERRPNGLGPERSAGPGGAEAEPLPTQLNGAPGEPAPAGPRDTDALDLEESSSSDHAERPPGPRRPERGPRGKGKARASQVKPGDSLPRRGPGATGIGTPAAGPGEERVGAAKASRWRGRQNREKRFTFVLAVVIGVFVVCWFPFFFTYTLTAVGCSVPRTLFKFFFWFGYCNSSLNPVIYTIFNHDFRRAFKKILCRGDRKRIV
Method: (§1) The interaction of the compounds according to Formula (I) with hα2-receptors and h5-HT-transporters was assessed in in vitro radioligand binding experiments. In general, a low concentration of a radioligand with a high binding affinity for a particular receptor or transporter is incubated with a sample of a tissue preparation enriched in a particular receptor or transporter or with a preparation of cells expressing cloned human receptors in a buffered medium. During the incubation, the radioligand binds to the receptor or transporter. When equilibrium of binding is reached, the receptor bound radioactivity is separated from the non-bound radioactivity, and the receptor- or transporter-bound activity is counted. The interaction of the test compounds with the receptor is assessed in competition binding experiments. Various concentrations of the test compound are added to the incubation mixture containing the receptor- or transporter preparation and the radioligand. The test compound in proportion to its binding affinity and its concentration inhibits binding of the radioligand. The radioligand used for hα2A, hα2B and hα2C receptor binding was [^3H]-raulwolscine and for the h5-HT transporter was [^3H]paroxetine.
(§2) CHO cells, stabile transfected with human adrenergic-α2A-, —α2B or α2C receptor cDNA, were cultured in Dulbecco's Modified Eagle's Medium (DMEM)/Nutrient mixture Ham's F12 (ratio 1:1)(Gibco, Gent-Belgium) supplemented with 10% heat inactivated fetal calf serum (Life Technologies, Merelbeke-Belgium) and antibiotics (100 IU/ml penicillin G, 100 μg/ml streptomycin sulphate, 110 μg/ml pyruvic acid and 100 μg/ml L-glutamine). One day before collection, cells were induced with 5 mM sodiumbutyrate. Upon 80-90% of confluence, cells were scraped in phosphate buffered saline without Ca^2+ and Mg^2+ and collected by centrifugation at 1500×g for 10 min. The cells were homogenised in Tris-HCl 50 mM using an Ultraturrax homogenizer and centrifuged for 10 min at 23,500×g. The pellet was washed once by resuspension and rehomogenization and the final pellet was resuspended in Tris-HCl, divided in 1 ml aliquots and stored at −70° C.
(§3) Membranes were thawed and re-homogenized in incubation buffer (glycylglycine 25 mM, pH 8.0). In a total volume of 500 μl, 2-10 μg protein was incubated with [^3H]raulwolscine (NET-722) (New England Nuclear, USA) (1 nM final concentration) with or without competitor for 60 min at 25° C. followed by rapid filtration over GF/B filter using a Filtermate196 harvester (Packard, Meriden, Conn.). Filters were rinsed extensively with ice-cold rinsing buffer (Tris-HCl 50 mM pH 7.4). Filter-bound radioactivity was determined by scintillation counting in a Topcount (Packard, Meriden, Conn.) and results were expressed as counts per minute (cpm). Non-specific binding was determined in the presence of 1 μM oxymetazoline for hα2A- and hα2B receptors and 1 μM spiroxatrine for hα2C receptors.
(§4) Data from assays in the presence of compound were calculated as a percentage of total binding measured in the absence of test compound. Inhibition curves, plotting percent of total binding versus the log value of the concentration of the test compound, were automatically generated, and sigmoidal inhibition curves were fitted using non-linear regression. The pIC50 values of test compounds were derived from individual curves.

hα2B receptor = biological target: T2, hα2B receptor (Homo sapiens, UniProt P18089); experiment: Radioligand binding experiment for hα2B receptor ([3H]-raulwolscine, CHO cell membranes); details: [3H]-raulwolscine 1 nM, membranes of CHO cells transfected with human α2B receptor; read-out: pIC50 hα2B (converted)
T2 construct: expressed in transfected cells; host or cells: CHO cells
T2 sequence (P18089 1-450): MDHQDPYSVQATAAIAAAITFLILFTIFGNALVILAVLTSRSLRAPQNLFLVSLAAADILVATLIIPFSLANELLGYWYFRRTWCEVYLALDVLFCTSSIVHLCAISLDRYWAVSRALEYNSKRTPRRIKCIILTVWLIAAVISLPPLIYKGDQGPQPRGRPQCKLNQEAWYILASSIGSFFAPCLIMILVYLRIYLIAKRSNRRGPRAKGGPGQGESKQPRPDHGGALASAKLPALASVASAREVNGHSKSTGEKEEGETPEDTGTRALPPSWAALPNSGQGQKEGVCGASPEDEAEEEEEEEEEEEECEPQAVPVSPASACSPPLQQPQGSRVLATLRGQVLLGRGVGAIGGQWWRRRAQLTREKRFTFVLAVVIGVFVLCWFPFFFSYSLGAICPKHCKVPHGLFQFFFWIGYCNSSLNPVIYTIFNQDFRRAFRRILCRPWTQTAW
Method: as §1, §2, §3, §4

hα2C receptor = biological target: T3, hα2C receptor (Homo sapiens, UniProt P18825); experiment: Radioligand binding experiment for hα2C receptor ([3H]-raulwolscine, CHO cell membranes); details: [3H]-raulwolscine 1 nM, membranes of CHO cells transfected with human α2C receptor; read-out: pIC50 hα2C (converted)
T3 construct: expressed in transfected cells; host or cells: CHO cells
T3 sequence (P18825 1-462): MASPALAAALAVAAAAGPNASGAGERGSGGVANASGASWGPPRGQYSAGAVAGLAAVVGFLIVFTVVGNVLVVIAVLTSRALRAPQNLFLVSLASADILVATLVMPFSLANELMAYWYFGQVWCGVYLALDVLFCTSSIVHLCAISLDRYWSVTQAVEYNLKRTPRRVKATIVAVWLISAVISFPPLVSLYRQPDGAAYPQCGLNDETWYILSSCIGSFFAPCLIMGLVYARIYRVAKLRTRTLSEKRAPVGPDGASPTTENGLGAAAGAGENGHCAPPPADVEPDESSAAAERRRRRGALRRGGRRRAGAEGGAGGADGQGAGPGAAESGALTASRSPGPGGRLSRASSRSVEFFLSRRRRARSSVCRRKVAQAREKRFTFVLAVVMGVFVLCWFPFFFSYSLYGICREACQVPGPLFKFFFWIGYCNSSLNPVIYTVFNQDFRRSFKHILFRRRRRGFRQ
Method: as §1, §2, §3, §4

h5-HT transporter = biological target: T4, h5-HT transporter (Homo sapiens, UniProt P31645); experiment: Radioligand binding experiment for 5-HT transporter ([3H]paroxetine, human platelet membranes); details: [3H]paroxetine 0.5 nM, read-out: pIC50 h5HTT (converted)
T4 construct: Human platelet membranes (Oceanix Biosciences Corporation, Hanover, Md., USA) were thawed; tissue Oceanix Biosciences Corporation; host or cells: human platelet membranes
Method: as §1
Human platelet membranes (Oceanix Biosciences Corporation, Hanover, Md., USA) were thawed, diluted in buffer (Tris-HCl 50 mM, 120 mM NaCl and 5 mM KCl) and quickly (max 3 s) homogenised with an Ultraturrax homogenizer. In a total volume of 250 μL, 50-100 μg protein was incubated with [^3H]paroxetine (NET-869) (New England Nuclear, USA) (0.5 nM final concentration) with or without competitor for 60 min at 25° C. Incubation was stopped by rapid filtration of the incubation mixture over GF/B filters, pre-wetted with 0.1% polyethyleneamine, using a Filtermate 196 harvester (Packard, Meriden, Conn.). Filters were rinsed extensively with ice-cold buffer and radioactivity on the filters was counted in a Topcount liquid scintillation counter (Packard, Meriden, Conn.). Data were expressed as cpm. Imipramine (at 1 μM final concentration) was used to determine the non-specific binding.
as §4

T4 sequence (P31645 whole entry): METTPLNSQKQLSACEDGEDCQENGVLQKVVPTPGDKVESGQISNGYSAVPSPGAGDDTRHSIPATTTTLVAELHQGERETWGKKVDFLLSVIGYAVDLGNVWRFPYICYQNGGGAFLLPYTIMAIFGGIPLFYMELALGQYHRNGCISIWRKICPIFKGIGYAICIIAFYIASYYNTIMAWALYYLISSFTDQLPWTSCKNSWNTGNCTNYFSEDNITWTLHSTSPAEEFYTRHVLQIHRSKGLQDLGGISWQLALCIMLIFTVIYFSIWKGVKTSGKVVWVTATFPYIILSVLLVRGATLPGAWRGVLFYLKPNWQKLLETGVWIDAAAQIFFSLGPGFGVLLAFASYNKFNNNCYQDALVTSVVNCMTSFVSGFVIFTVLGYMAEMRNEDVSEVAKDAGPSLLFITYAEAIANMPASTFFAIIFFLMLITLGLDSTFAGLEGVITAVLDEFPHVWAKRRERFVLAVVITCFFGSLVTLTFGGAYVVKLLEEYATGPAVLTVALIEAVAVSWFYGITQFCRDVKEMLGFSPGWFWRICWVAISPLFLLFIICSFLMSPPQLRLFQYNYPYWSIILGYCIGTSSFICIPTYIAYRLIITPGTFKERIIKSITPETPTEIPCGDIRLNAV

SMILES	IC50 (hα2A receptor) [nM]	IC50 (hα2B receptor) [nM]	IC50 (hα2C receptor) [nM]	IC50 (h5-HT transporter) [nM]
Cc1ccc2c(c1)C1=NOC(CN3CCN(CC=Cc4ccccc4)CC3)C1CO2 (stereo not shown) [Compound 1, 8-Methyl-3-[4-(3-phenyl-allyl)-piperazin-1-ylmethyl]-3a,4-dihydro-3H-chromeno[4,3-c]isoxazole]	3.98	10	15.8	39.8
COc1cc2c(cc1C)OCC1C2=NOC1CN1CCN(C/C(C)=C/c2ccccc2)CC1 (stereo not shown) [Compound 2, 8-Methoxy-7-methyl-3-[4-(2-methyl-3-phenyl-allyl)-piperazin-1-ylmethyl]-3a,4-dihydro-3H-chromeno[4,3-c]isoxazole]	2		1.58	20
COc1cc2c(cc1CO)OCC1C2=NOC1CN1CCN(C/C(C)=C/c2ccccc2)CC1 (stereo not shown) [Compound 4, {8-Methoxy-3-[4-(2-methyl-3-phenyl-allyl)-piperazin-1-ylmethyl]-3a,4-dihydro-3H-chromeno[4,3-c]isoxazol-7-yl}-methanol]	3.98		1.58	100
COCc1ccc2c(c1)OCC1C2=NOC1CN1CCN(CC(C)=Cc2ccccc2)CC1 (stereo not shown) [Compound 5, 7-Methoxymethyl-3-[4-(2-methyl-3-phenyl-allyl)-piperazin-1-ylmethyl]-3a,4-dihydro-3H-chromeno[4,3-c]isoxazole]	3.16	2.51	0.794	158
COCCOCOCc1cc2c(cc1OC)C1=NOC(CN3CCN(C/C(C)=C/c4ccccc4)CC3)C1CO2 (stereo not shown) [Compound 6, 8-Methoxy-7-(2-methoxy-ethoxymethoxymethyl)-3-[4-(2-methyl-3-phenyl-allyl) -piperazin-1-ylmethyl]-3a,4-dihydro-3H-chromeno[4,3-c]isoxazole]	7.94	2.51	0.794	31.6
COc1cc2c(cc1COC(C)=O)OCC1C2=NOC1CN1CCN(C/C(C)=C/c2ccccc2)CC1 (stereo not shown) [Compound 7, Acetic acid 8-methoxy-3-[4-(2-methyl-3-phenyl-allyl)-piperazin-1-ylmethyl]-3a,4-dihydro-3H-chromeno[4,3-c]isoxazol-7-ylmethyl ester]	3.98		1.26	12.6
COc1cc2c(cc1COc1ccccc1)OCC1C2=NOC1CN1CCN(C/C(C)=C/c2ccccc2)CC1 (stereo not shown) [Compound 8, 8-Methoxy-3-[4-(2-methyl-3-phenyl-allyl)-piperazin-1-ylmethyl]-7-phenoxymethyl-3a,4-dihydro-3H-chromeno[4,3-c]isoxazole]	25.1		20	200
C/C(=C\c1ccccc1)CN1CCN(CC2ON=C3c4ccc(/C=N\O)cc4OCC32)CC1 (stereo not shown) [Compound 11, 3-[4-(2-Methyl-3-phenyl-allyl)-piperazin-1-ylmethyl]-3a,4-dihydro-3H -chromeno[4,3-c]isoxazole-7-carbaldehyde oxime]	5.01		1.58	5.01
CON=Cc1ccc2c(c1)OCC1C2=NOC1CN1CCN(CC(C)=Cc2ccccc2)CC1 (stereo not shown) [Compound 12, 3-[4-(2-Methyl-3-phenyl-allyl)-piperazin-1-ylmethyl]-3a,4-dihydro-3H -chromeno[4,3-c]isoxazole-7-carbaldehyde O-methyl-oxime]	6.31		3.98	100
CC(=O)NCc1ccc2c(c1)OCC1C2=NOC1CN1CCN(C/C(C)=C/c2ccccc2)CC1 (stereo not shown) [Compound 15, N-{3-[4-(2-Methyl-3-phenyl-allyl)-piperazin-1-ylmethyl]-3a,4-dihydro-3H -chromeno[4,3-c]isoxazol-7-ylmethyl}-acetamide]	5.01		0.794	
CCNC(=O)c1cc2c(cc1OC)C1=NOC(CN3CCN(C/C(C)=C/c4ccccc4)CC3)C1CO2 (stereo not shown) [Compound 16, 8-Methoxy-3-[4-(2-methyl-3-phenyl-allyl)-piperazin-1-ylmethyl]-3a,4-dihydro-3H -chromeno[4,3-c]isoxazole-7-carboxylic acid ethylamide]	3.16		1.58	126
COc1cc2c(cc1-c1ccccc1)OCC1C2=NOC1CN1CCN(C/C(C)=C/c2ccccc2)CC1 (stereo not shown) [Compound 17, 8-Methoxy-3-[4-(2-methyl-3-phenyl-allyl)-piperazin-1-ylmethyl]-7-phenyl-3a,4-dihydro-3H-chromeno[4,3-c]isoxazole]	15.8		12.6	158
C/C(=C\c1ccccc1)CN1CCN(CC2ON=C3c4ccc(C=O)cc4OCC32)CC1 (stereo not shown) [Compound 19]	5.01		0.794	
